Experimental data: the NIST ThermoML archive (doi:10.1021/je060243s)
Where “and” joins values, the source holds several entries; their conditions need not be identical. Equal values may be shown once.

Experiment: wn = mass fraction of the nth substance listed
Details: Liquid, Pulse-echo method, w2 = 0.5

FC(F)C(F)(F)F [pentafluoroethane] + FCF
speed of sound
Details | 253.09 K | 258.09 K | 265.61 K | 273.12 K | 280.72 K | 288.2 K
830 kPa | – | – | – | 574.5 m/s | – | –
1000 kPa | – | 656.5 m/s | – | – | – | –
1030 kPa | – | – | – | – | 535.2 m/s | –
1060 kPa | – | – | – | – | 535.5 m/s | –
1120 kPa | – | 657.6 m/s | – | – | – | –
1150 kPa | – | – | – | – | 536.9 m/s | –
1180 kPa | 684.1 m/s | – | – | – | – | –
1190 kPa | – | – | 618.9 m/s | – | – | –
1220 kPa | – | – | – | 578.8 m/s | – | –
1260 kPa | 684.8 m/s | 658.8 m/s | – | – | 538 m/s | –
1340 kPa | – | – | 620 m/s | – | – | –
1350 kPa | – | – | – | – | – | 496 m/s
1360 kPa | – | – | – | 580.1 m/s | – | –
1380 kPa | 685.8 m/s | 659.7 m/s | – | – | 539.4 m/s | –
1420 kPa | – | – | – | – | – | 497.2 m/s
1480 kPa | – | – | – | – | – | 498 m/s
1500 kPa | 686.8 m/s | 660.8 m/s and 661 m/s | 621.6 m/s | 581.6 m/s | 540.9 m/s | –
1550 kPa | – | – | – | – | – | 499 m/s
1620 kPa | 687.7 m/s | – | – | – | – | –
1630 kPa | – | 662.2 m/s | – | – | 542.3 m/s | –
1750 kPa | 688.8 m/s | 663.1 m/s | 623.8 m/s | 584.2 m/s | 543.8 m/s | –
2010 kPa | 690.6 m/s | 665.1 m/s | 626.1 m/s | 586.8 m/s | 546.7 m/s | –
2250 kPa | 692.6 m/s | 667.1 m/s | 628.3 m/s | 589.4 m/s | 549.6 m/s | –
2510 kPa | 694.3 m/s | 669.2 m/s | 630.7 m/s | 591.9 m/s | 552.3 m/s | –
2750 kPa | 696.4 m/s | 671.4 m/s | 633 m/s | 594.1 m/s | 555 m/s | –
3010 kPa | 698.4 m/s | 673.4 m/s | 635.2 m/s | 596.9 m/s | 557.9 m/s | –
3500 kPa | 702.3 m/s | 677.1 m/s | 639.4 m/s | 601.6 m/s | 563.2 m/s | –
4000 kPa | 705 m/s | 681.1 m/s | 644 m/s | 606.4 m/s | 568.5 m/s | –
4500 kPa | 709.5 m/s | 685.3 m/s | 648.1 m/s | 611 m/s | 573.7 m/s | –
5000 kPa | 713.3 m/s | 689.1 m/s | 652.1 m/s | 615.4 m/s | 579 m/s | –
6010 kPa | 720.6 m/s | 696.6 m/s | 660.6 m/s | 624.4 m/s | 588.6 m/s | –
7010 kPa | 727.4 m/s | 703.9 m/s | 668.4 m/s | 633.3 m/s | 598.3 m/s | –
8000 kPa | 734.2 m/s | 711 m/s | 676.1 m/s | 641.5 m/s | 607.1 m/s | –
9000 kPa | 740.8 m/s | 718.1 m/s | 683.8 m/s | 649.3 m/s | 615.9 m/s | –
10000 kPa | 747.5 m/s | 724.8 m/s | 691 m/s | 657.6 m/s | 624.5 m/s | –
12000 kPa | 760.2 m/s | 738.2 m/s | 705.2 m/s | 672.7 m/s | 640.6 m/s | –
14000 kPa | 772.5 m/s | 751.2 m/s | 718.9 m/s | 687.3 m/s | 656.1 m/s | –
16010 kPa | 784.5 m/s | 763.4 m/s | 732.1 m/s | 701.1 m/s | 670.9 m/s | –
18000 kPa | 795.3 m/s | 775 m/s | 744.4 m/s | 714.5 m/s | 684.9 m/s | –
20000 kPa | 806.9 m/s | 786.7 m/s | 756.2 m/s | 727 m/s | 698.3 m/s | –
23000 kPa | 822.9 m/s | 803.2 m/s | 773.6 m/s | 745.4 m/s | 717 m/s | –
26000 kPa | 837.9 m/s | 818.7 m/s | 790.1 m/s | 762.7 m/s | 735.5 m/s | –
29010 kPa | 852.8 m/s | 833.7 m/s | 806.2 m/s | 779 m/s | 752.6 m/s | –
32000 kPa | 867.2 m/s | 848.7 m/s | 821.5 m/s | 794.8 m/s | 769.2 m/s | –
35000 kPa | 880.5 m/s | 862.6 m/s | 835.5 m/s | 809.6 m/s | 785.1 m/s | –
40000 kPa | 902.6 m/s | 885 m/s | 858.8 m/s | 833.5 m/s | 809.7 m/s | –
45000 kPa | 923.6 m/s | 906.3 m/s | 880.8 m/s | 856.4 m/s | 833.1 m/s | –
50000 kPa | 943.8 m/s | 926.7 m/s | 902 m/s | 877.8 m/s | 855.3 m/s | –
55000 kPa | 962.8 m/s | 946.6 m/s | 922.4 m/s | 898.7 m/s | 876.4 m/s | –
60000 kPa | 981.2 m/s | 965.6 m/s | 941.6 m/s | 919 m/s | 898.9 m/s | –
65000 kPa | 999.5 m/s | 983.3 m/s | 959.9 m/s | 938 m/s | 916.7 m/s | –

Details | speed of sound [m/s]
273.12 K | 574.5
280.72 K | 535.2
